Reference: patent publication US6803367B2, “Substance for inducing apoptosis” (Takara Shuzo Co., Ltd., priority 1997, dated 2004)

Columns and labels:
Assay type in all cases: cell-based, human
HL-60 cells [1] = assay: Viable and dead cell counting of HL-60 cells by Trypan Blue staining
Method: (§1) HL-60 cells (ATCC CCL240) which were incubated at 37° C. in an RPMI 1640 medium (manufactured by Nissui) containing 10% of fetal calf serum (manufactured by Gibco) treated at 56° C. for 30 minutes were suspended in the above medium to make the concentration 2.5×10^5 cells/4.5 ml. To this suspension was added 0.5 ml of 10 μM, 20 μM, 40 μM or 80 μM aqueous solution of S-1127 followed by incubating at 37° C. in the presence of 5% carbon dioxide gas for 15 hours or 39 hours.
(§2) Incidentally, such a phenomenon was not observed in the water-added control section.
In FIG. 31, ◯ indicates the case where 10 μM of S-1127 was added; Δ indicates the case where 20 μM of S-1127 was added; □ indicates the case where 40 μM of S-1127 was added; X indicates the case where 80 μM of S-1127 was added and ● indicates the control where water was added.

HL-60 cells [2] = assay: DNA fragmentation in HL-60 cells by agarose gel electrophoresis; details: after incubation for 15 hours; concentration of the aqueous solution added (0.5 ml to 4.5 ml suspension)
Method: as §1, §2

HL-60 cells [3] = assay: Growth inhibition of HL-60 cells (MTT, 96-well microtiter plate); details: for activity of growth inhibition of cancer cells: 5 μl per well, 18 hours incubation
Method: (§3) To each of the wells of a 96-well microtiter plate was added 1000, 500, 250, 125, 62.5 or 31.3 μg/ml aqueous solution of imidazolylcyclopentenone obtained in Example 1-(2) or 10 μl of water as a control. HL-60 (ATCC CCL-240) was suspended in an RPMI 1640 medium containing 10% of fetal calf serum to make the concentration 5×10^4 cells/ml and each 90 μl thereof was placed in each well of the above-mentioned microtiter plate and incubated at 37° C. for 48 hours in the presence of 5% carbon dioxide. Incubation was conducted for four hours more after addition of 10 μl of a solution (5 mg/ml) of 3-(4,5-dimethylthiazol-2-yl)-2,5-diphenyltetrzolium bromide (MTT; manufactured by Sigma) in a phosphate-buffered saline solution and the state of growth of the cells was observed under a microscope. Further, 100 μl of 2-propanol containing 0.04N hydrochloric acid was added followed by stirring and an absorbance at 590 nm was measured.
The non-adsorbed fraction of Example 4 was adjusted to pH 3 with HCl and heated at 121° C. for 1 hour. The resulting heat-treated solution was diluted with aseptic water to an extent of 2-, 4-, 8-, 16-, 32- or 64-fold and its activity of growth inhibition of HL-60 cells was measured by the same way as in Example 3.
Main peaks and the fractions between them were collected and evaporated to dryness in vacuo, each of the fractions was diluted to an extent of 3- or 9-fold with water and their activity of growth inhibition of HL-60 cells was measured by the same way as in Example 3 except that 5 μl of the sample were added to each well and the incubation was conducted for 18 hours. […] Production of apoptotic body was confirmed as well.
The growth inhibiting activity of a 1 mM aqueous solution of MC2 and a 350 μM aqueous solution of HMC2 obtained in Example 10 to HL-60 cells was measured by the same way as in Example 3.

HL-60 cells [4] = assay: Observation of apoptotic body in HL-60 cells under a microscope
Method: as §3
As a result of observation under a microscope, production of apoptotic body was confirmed.
Main peaks and the fractions between them were collected and evaporated to dryness in vacuo, each of the fractions was diluted to an extent of 3- or 9-fold with water and their activity of growth inhibition of HL-60 cells was measured by the same way as in Example 3 except that 5 μl of the sample were added to each well and the incubation was conducted for 18 hours. […]

O=CC(=CCc1ccc(O)cc1)c1ccc(O)cc1 [S-1127, 2,4-bis(p-hydroxyphenyl)-2-butenal]
living cell numbers compared with the water-added control section (HL-60 cells [1]; 20 μM added, after incubation of 39 hours): significantly decreased | concentration at which cells were killed (HL-60 cells [1]; after incubation of 15 hours, concentration of the aqueous solution added (0.5 ml to 4.5 ml suspension)): ≥ 40 µM | concentration at which fragmentation of DNA was noted (HL-60 cells [2]): ≥ 20 µM

CC(=O)Nc1ccc(O)c(O)c1O [N-(2,3,4-trihydroxyphenyl)acetamide]
activity of growth inhibition of cancer cells (HL-60 cells [3]; 3-fold diluted solution of the HPLC fraction, HL-60): activity of growth inhibition of cancer cells was noted | activity of growth inhibition of cancer cells (HL-60 cells [3]; undiluted aqueous solution of the HPLC fraction, HL-60): activity of growth inhibition of cancer cells was noted | production of apoptotic body (HL-60 cells [4]; Example 6, 18 hours incubation): confirmed

COC1=CC(OC)CC1=O (stereo not shown) [MC2, 2,4-dimethoxy-2-cyclopenten-1-one]
growth of the cells (HL-60 cells [3]; 1 mM solution added, final concentration 100 μM, HL-60): inhibited | apoptotic body under an optical microscope (HL-60 cells [4]; final concentration 100 μM): observed

CC(=O)N[C@H]1C(O)O[C@H](CO)[C@H](O)[C@@H]1O (stereo partly shown) [N-acetylgalactosamine, reference compound]
growth of the cells versus water-added control section (HL-60 cells [3]; 4 mg/ml added, HL-60): no difference

O=C1CC(n2ccnc2)C=C1O (stereo not shown) [imidazolylcyclopentenone, 2-hydroxy-4-(1-imidazolyl)-2-cyclopenten-1-one]
concentration at which the growth of HL-60 cells was completely inhibited (HL-60 cells [3]; final concentration, 48 hours incubation, MTT): 6.25 µg/mL
